Measurements from ChEMBL document CHEMBL1201862, “PubChem BioAssay data set” (2004).
pEC50: −log10 of the molar value. Calls of active or inactive are those of the source.

How the values were obtained:
[1] = NIH/3T3 fibroblast cytotoxicity, dose response, cytotoxicity control, cell-based, plate reader, dry powder, set 2 (AID 652280); format: functional; details: NIH3T3
[2] = T. cruzi intracellular amastigote growth inhibition, dose response, imaging, CA-I/72 strain, bovine embryo skeletal muscle, dry powder (AID 651885); format: functional, cell-based
[3] = T. cruzi growth inhibition in host cells, dose response, cell-based, plate reader, dry powder, set 2 (AID 652275); format: functional
[4] = target: Metabotropic glutamate receptor 5 (Rattus norvegicus, UniProt P31424); experiment: Identification of a glycine sulfonamide based non-MPEP site positive allosteric potentiator (PAM) of mGlu5 (calcium_assay).; format: functional
Ephrin type-A receptor 4 = Ephrin type-A receptor 4 (Mus musculus, UniProt Q03137); experiment: inhibitors of EphA4 binding to KYL peptide, primary screen, biochemical, colorimetric, mouse EphA4 (AID 689); format: functional
[5] = Late stage assay provider results from the probe development effort to identify inhibitors of the Plasmodium falciparum M18 Aspartyl Aminopeptidase (M18AAP): radiolabel-based cell-based dose response assay to identify compounds that inhibit P. falciparum growth in RBCs, Set 2..; format: functional
cells = details: HEK293
[6] = target: T1, Methionyl-tRNA synthetase, putative (Trypanosoma brucei brucei, UniProt Q38C91); format: functional, Trypanosoma brucei brucei strain 927/4 GUTat10.1
[7] = Counterscreen for inhibitors of Trypanosoma brucei methionyl tRNA synthetase (MetRS): Luminescence-based cell-based high throughput dose response assay to identify compounds that are cytotoxic to Jurkat human T lymphocyte cells.; format: functional
[8] = target: T1, Methionyl-tRNA synthetase, putative; format: functional, Trypanosoma brucei brucei strain 927/4 GUTat10.1; remark: listed apart in the source
[9] = Late stage counterscreen for inhibitors of Trypanosoma brucei methionyl tRNA synthetase (MetRS): Luminescence-based cell-based high throughput dose response assay to identify compounds that are cytotoxic to Jurkat human T lymphocyte cells.; format: functional
Streptococcus = experiment: Group A Streptococcus viability loss, dose response, counter-screen for streptokinase expression inhibitor project, luminescence, BacTiterGlo (AID 1915); format: functional, organism-based;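 note: potency for reduction of bacterial viability or growth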
[10] = target: Disintegrin and metalloproteinase domain-containing protein 17 (Homo sapiens, UniProt P78536); experiment: ADAM17 protease inhibitors, dose response, counter-screen for ADAM10 exosite inhibitor project, biochemical, quenched FRET substrate (AID 743253)
[11] = test system: Streptococcus sp. 'group A'; experiment: growth inhibition of control SK(-) GAS strain, dose response, counter-screen for streptokinase expression inhibitor project, luminescence, kanamycin, BacTiterGlo, confirmation (AID 1900); format: functional, organism-based
[12] = ADAM10 inhibitors, peptide cleavage, dose response, biochemical, QFRET (AID 743254);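 note: ADAM10 enzyme with the DM2 quenched FRET peptide as substrate; EDANS fluorescence gain as the protease cuts the substrate; inhibitor potency against ADAM10 proteolytic activity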
Streptokinase A = target: T2, Streptokinase A (Streptococcus pyogenes serotype M1, UniProt P10520); experiment: S. pyogenes streptokinase expression inhibitors, potency, dose response, plasminogen activation absorbance, OD405 (AID 1914); format: functional, Streptococcus pyogenes M1 GAS;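 note: secreted streptokinase activity via plasminogen activation per viability signal from cell pellet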
T2 sequence (P10520 whole entry): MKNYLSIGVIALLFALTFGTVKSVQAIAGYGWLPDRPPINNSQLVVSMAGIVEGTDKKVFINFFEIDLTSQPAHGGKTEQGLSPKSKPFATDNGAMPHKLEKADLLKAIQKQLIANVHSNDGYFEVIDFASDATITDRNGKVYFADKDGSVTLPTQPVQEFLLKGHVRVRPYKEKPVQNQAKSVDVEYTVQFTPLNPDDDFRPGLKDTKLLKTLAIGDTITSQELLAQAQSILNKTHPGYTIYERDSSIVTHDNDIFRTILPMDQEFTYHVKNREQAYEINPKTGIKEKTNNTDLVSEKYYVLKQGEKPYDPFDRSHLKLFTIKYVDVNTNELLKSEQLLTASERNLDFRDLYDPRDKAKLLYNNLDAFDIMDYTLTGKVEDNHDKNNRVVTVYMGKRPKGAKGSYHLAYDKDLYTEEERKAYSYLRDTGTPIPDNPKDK

[13] = Shn3 3'UTR reporter inhibitors, dose response, cell-based, Clone20 osteoblasts, firefly luciferase, cherry-picked (AID 624132); format: functional;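 note: firefly luciferase luminescence from reporter carrying the Shn3 3'UTR in osteoblasts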
[14] = reduction of Shn3 3'UTR firefly luciferase signal, dose response, Schnurri-3 inhibitor project, cell-based, Clone20 osteoblasts, cherry-pick, set 2 (AID 720490); format: functional;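 note: actives lower the luminescence signal as inhibitors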
[15] = control 3'UTR Renilla luciferase suppression, dose response, counter-screen for Shn3 inhibitor project, cell-based, Clone20-Shn3RL, cherry-picked (AID 624133); format: functional

T1 sequence (Q38C91 whole entry): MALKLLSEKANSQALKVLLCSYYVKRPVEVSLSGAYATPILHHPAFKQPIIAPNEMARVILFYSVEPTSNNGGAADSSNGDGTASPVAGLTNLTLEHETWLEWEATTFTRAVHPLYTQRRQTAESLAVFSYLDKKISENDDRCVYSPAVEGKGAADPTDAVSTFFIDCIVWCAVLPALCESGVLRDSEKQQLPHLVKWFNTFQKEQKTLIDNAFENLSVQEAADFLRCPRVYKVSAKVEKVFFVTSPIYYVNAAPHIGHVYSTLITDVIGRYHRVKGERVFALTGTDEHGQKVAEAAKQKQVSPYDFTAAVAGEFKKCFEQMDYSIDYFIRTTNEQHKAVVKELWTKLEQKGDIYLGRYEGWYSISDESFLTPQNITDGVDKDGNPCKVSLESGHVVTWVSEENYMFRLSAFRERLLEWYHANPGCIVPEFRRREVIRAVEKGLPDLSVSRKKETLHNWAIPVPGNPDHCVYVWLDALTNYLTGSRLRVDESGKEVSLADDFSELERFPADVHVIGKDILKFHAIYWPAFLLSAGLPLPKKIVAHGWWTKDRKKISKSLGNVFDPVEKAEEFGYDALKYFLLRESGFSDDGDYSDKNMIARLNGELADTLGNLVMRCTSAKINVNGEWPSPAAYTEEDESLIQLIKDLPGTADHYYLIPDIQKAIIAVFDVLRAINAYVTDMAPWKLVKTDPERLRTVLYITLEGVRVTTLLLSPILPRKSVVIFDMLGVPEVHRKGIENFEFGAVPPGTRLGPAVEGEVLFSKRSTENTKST
Chain of Ephrin type-A receptor 4 (Q03137 whole entry): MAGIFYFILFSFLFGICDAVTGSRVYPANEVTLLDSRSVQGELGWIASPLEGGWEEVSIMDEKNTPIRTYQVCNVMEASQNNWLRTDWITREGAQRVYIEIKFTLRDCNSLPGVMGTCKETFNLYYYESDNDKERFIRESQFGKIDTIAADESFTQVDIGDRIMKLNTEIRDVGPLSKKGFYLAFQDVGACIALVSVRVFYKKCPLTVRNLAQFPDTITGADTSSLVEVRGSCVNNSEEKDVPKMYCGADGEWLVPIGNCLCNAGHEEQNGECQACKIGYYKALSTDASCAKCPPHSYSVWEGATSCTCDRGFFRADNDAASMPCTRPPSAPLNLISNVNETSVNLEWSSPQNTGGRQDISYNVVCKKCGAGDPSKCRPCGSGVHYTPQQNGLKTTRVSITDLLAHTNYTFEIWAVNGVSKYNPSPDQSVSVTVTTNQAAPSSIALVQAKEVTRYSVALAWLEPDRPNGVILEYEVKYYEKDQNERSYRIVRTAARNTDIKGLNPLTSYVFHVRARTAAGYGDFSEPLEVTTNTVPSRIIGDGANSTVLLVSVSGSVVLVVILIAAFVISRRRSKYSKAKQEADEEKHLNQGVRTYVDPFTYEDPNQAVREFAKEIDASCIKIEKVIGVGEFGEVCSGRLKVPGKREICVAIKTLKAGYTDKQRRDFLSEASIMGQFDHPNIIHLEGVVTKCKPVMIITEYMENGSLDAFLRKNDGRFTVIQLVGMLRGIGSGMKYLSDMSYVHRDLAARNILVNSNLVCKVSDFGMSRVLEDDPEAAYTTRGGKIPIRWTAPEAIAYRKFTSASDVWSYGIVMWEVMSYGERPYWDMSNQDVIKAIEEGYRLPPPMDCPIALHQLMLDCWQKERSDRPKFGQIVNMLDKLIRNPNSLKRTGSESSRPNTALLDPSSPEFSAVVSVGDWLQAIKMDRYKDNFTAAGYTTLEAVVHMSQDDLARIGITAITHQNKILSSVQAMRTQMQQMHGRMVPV
Chain of Disintegrin and metalloproteinase domain-containing protein 17 (P78536 whole entry, the tested form may be a part): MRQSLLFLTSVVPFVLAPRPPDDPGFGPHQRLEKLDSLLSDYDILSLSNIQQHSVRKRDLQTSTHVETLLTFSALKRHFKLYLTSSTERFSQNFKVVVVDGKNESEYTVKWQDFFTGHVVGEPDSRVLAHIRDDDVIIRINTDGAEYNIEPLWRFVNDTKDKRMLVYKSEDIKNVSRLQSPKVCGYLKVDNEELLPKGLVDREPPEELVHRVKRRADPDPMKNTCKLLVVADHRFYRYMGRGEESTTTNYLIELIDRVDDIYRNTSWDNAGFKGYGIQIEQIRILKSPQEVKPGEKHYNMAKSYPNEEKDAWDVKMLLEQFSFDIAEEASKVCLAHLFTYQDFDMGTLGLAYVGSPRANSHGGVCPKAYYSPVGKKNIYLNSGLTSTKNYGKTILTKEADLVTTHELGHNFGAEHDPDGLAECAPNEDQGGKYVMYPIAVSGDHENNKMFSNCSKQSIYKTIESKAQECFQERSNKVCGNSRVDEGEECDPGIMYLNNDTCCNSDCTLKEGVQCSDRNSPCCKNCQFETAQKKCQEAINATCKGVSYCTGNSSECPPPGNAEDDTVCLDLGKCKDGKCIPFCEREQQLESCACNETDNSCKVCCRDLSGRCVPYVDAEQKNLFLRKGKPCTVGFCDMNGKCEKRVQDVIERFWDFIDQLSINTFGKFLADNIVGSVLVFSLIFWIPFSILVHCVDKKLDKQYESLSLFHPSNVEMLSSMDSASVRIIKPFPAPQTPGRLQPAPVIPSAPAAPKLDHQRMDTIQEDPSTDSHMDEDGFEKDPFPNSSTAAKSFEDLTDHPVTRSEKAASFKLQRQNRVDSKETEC
Chain of Metabotropic glutamate receptor 5 (P31424 whole entry): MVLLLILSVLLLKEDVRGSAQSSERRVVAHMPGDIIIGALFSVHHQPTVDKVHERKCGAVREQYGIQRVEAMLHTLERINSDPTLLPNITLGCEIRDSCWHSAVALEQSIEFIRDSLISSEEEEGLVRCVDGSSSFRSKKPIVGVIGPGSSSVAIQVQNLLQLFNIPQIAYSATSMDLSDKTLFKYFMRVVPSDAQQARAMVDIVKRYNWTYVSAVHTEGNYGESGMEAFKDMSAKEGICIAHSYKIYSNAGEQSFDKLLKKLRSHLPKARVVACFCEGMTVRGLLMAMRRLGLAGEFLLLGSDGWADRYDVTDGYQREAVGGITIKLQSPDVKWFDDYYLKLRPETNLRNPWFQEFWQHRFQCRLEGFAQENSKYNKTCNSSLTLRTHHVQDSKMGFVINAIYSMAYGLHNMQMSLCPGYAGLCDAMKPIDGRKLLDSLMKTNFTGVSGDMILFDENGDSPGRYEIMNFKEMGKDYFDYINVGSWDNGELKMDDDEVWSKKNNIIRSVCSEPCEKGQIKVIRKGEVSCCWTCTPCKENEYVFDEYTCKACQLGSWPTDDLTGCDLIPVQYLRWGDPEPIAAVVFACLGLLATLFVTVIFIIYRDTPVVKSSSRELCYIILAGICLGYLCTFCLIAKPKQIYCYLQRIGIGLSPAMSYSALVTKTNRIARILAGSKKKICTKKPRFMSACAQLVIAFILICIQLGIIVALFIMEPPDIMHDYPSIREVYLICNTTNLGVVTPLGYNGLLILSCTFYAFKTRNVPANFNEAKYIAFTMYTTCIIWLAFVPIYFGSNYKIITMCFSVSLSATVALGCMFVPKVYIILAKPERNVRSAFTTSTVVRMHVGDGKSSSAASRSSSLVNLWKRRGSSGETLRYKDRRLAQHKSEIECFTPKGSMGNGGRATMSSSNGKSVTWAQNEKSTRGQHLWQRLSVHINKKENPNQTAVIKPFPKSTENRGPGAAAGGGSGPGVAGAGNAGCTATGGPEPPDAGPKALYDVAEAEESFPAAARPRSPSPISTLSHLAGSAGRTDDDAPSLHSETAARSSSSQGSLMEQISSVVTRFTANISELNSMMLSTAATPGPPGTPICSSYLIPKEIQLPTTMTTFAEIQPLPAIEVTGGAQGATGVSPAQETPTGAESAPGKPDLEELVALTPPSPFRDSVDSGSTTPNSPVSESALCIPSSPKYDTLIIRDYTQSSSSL

In the case of `C[C@H]1CN([C@@H](C)CO)C(=O)c2cccc(NC(=O)c3ccncc3)c2O[C@@H]1CN(C)Cc1ccc(Cl)c(Cl)c1`, the AC50 [1] was 13.2 µM (active), the IC50 [2] was 0.00211 µM (active) and the AC50 [3] was 0.00674 µM (active).

In the case of `CS(=O)(=O)N(CC(=O)Nc1cccc(Cl)c1)c1ccccc1Cl`, the pEC50 [4] was 7.29 and the IC50 (Ephrin type-A receptor 4) was > 100 µM (not active).

In the case of `Oc1ccc(CCCNc2c3ccccc3nc3ccccc23)cc1O`, the IC50 [5] was 3.7 µM (active).

For `COc1ccc(CCNC(=O)CSc2cn(Cc3cccc(C)c3)c3ccccc23)cc1OC`, the AC50 (cells) was > 52 µM (inactive).

For `O=C(Cn1cc(C(=O)C(=O)N2CCOCC2)c2ccccc21)Nc1cccc(C(F)(F)F)c1`, the IC50 [6] was 0.205 µM (active), the IC50 [7] was 77.5 µM (inactive) and the IC50 [8] was 0.352 µM (active). For the same compound, the IC50 [9] was > 83.3 µM (inactive).

In the case of `O=C(OCc1ccc(-c2ccccc2)cc1)c1cccc(O)c1`, the EC50 (Streptococcus) was 19 µM (active), the IC50 [10] was > 69.5 µM (inactive) and the EC50 [11] was 11.4 µM (active). The IC50 [12] was > 7.72 µM (active) and the EC50 (Streptokinase A) was 22.4 µM (active).

In the case of `O=C(COC(=O)c1[nH]nc2ccccc12)Nc1ccc(S(=O)(=O)N2CCCC2)cc1`, the AC50 [13] was 5.33 µM (active), the AC50 [14] was 31.8 µM (active) and the AC50 [15] was 36.1 µM (active).
